The values below come from ChEMBL document CHEMBL1148029, “Synthesis and radiopharmacological characterization of 2beta-carbo-2'-[18F]fluoroethoxy-3beta-(4-bromo-phenyl)tropane ([18F]MCL-322) as a PET radiotracer for imaging the dopamine transporter (DAT)” (Bioorg Med Chem, 2007).

Series [1] relates to Striatum. Kind of series: Biodistribution in Wistar rat striatum at 300 uCi, iv after 60 mins in presence of GBR-12909. The series is classed as ADME, organism-based. As to conditions: in vivo, 1 h.
Series [2] relates to Muscle tissue. As to the kind of experiment: Biodistribution in Wistar rat muscle at 300 uCi, iv after 120 mins. The class given is ADME, organism-based. As to conditions: in vivo, 2 h.
For another series, the system named is Heart. Kind of series: Biodistribution in Wistar rat heart at 300 uCi, iv after 5 mins. The class given is ADME, organism-based. As to conditions: in vivo.
In series [3] the test system is Striatum. Kind of series: Biodistribution in Wistar rat striatum at 300 uCi, iv after 240 mins. The class given is ADME, organism-based. As to conditions: in vivo, 4 h.
The subject of a further series is Cortex. As to the kind of experiment: Biodistribution in Wistar rat cortex at 300 uCi, iv after 240 mins. As to conditions: in vivo, 4 h. The series is classed as ADME, organism-based.
The test system of a further series is Liver. Kind of series: Biodistribution in Wistar rat liver at 300 uCi, iv after 60 mins. The series is classed as ADME, organism-based. As to conditions: in vivo, 1 h.
Series [4] has as its system Muscle tissue. As to the kind of experiment: Biodistribution in Wistar rat muscle at 300 uCi, iv after 60 mins. The class given is ADME, organism-based. As to conditions: in vivo, 1 h.
Series [5] is described as follows: Biodistribution in Wistar rat brown fat at 300 uCi, iv after 5 mins. The series is classed as ADME, organism-based, Brown adipose tissue. As to conditions: in vivo.

SMILES strings stand for the structures.

As to `CN1C2CCC1C(C(=O)OCC[18F])C(c1ccc(Br)cc1)C2` (stereo not drawn), the Drug uptake in the series with Striatum [1] is 1.51 % ID/g; with Muscle tissue [2] it was 0.09 % ID/g; in the series with Heart, 1.09 % ID/g; in the series with Striatum [3] it was 2.45 % ID/g; with Cortex it was 0.14 % ID/g; with Liver, 11.8 % ID/g. In addition, the Drug uptake stood at 0.16 % ID/g in the series with Muscle tissue [4] and 1.46 % ID/g in series [5].
